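Interpolation was linear, between the two tested concentrations surrounding the appropriate level; five concentrations were tested over 48 hours in 96-well plates. GI50 = concentration required for 50% inhibition of growth. TGI is the concentration that stops growth completely.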
Legend:
Assay in all cases: growth of human tumour cells (NCI), 48 h
CAKI-1 renal = system: CAKI-1 renal
HOP-92 NSCLC = system: HOP-92 NSCLC
HT29 colon = system: HT29 colon
K-562 leukemia = system: K-562 leukemia
MDA-MB-231 breast = system: MDA-MB-231 breast
MDA-MB-435 = system: MDA-MB-435
NCI-H460 lung = system: NCI-H460 lung
SF-295 CNS = system: SF-295 CNS
SNB-19 CNS = system: SNB-19 CNS
UACC-62 melanoma = system: UACC-62 melanoma

| SMILES | GI50 (CAKI-1 renal) | TGI (CAKI-1 renal) | GI50 (HOP-92 NSCLC) | TGI (HOP-92 NSCLC) | GI50 (HT29 colon) | TGI (HT29 colon) | GI50 (K-562 leukemia) | TGI (K-562 leukemia) | GI50 (MDA-MB-231 breast) | TGI (MDA-MB-231 breast) | GI50 (MDA-MB-435) | TGI (MDA-MB-435) | GI50 (NCI-H460 lung) | TGI (NCI-H460 lung) | GI50 (SF-295 CNS) | TGI (SF-295 CNS) | GI50 (SNB-19 CNS) | TGI (SNB-19 CNS) | GI50 (UACC-62 melanoma) | TGI (UACC-62 melanoma) |
| --- | --- | --- | --- | --- | --- | --- | --- | --- | --- | --- | --- | --- | --- | --- | --- | --- | --- | --- | --- | --- |
| COc1cnc2c(c1)C(=O)c1c-2n(CCCNC(C)C)c(=O)c2cc([N+](=O)[O-])ccc12 | 31.4 nM | 191 nM | 1090 nM | 2820 nM | 36.4 nM | 1010 nM | 44.3 nM | 485 nM | 157 nM | 438 nM | 109 nM | 261 nM | 19.1 nM | 126 nM | 30.9 nM | 221 nM | 42.3 nM | 896 nM | 19.1 nM | 123 nM |
| CCN(CC)CC[n+]1cc2cc(OC)c(OC)cc2c2ccc3cc4c(cc3c21)OCO4 | 1990 nM | 14300 nM | 1370 nM | 3880 nM | 321 nM | 1360 nM | 288 nM | – | 709 nM | 2710 nM | 675 nM | 2140 nM | 288 nM | 1040 nM | 429 nM | 2360 nM | 452 nM | 1770 nM | 1220 nM | 4890 nM |
| C=CCSSc1ncnc2c1ncn2C1OC(CO)C(O)C1O (centres undefined) | 799 nM | > 68800 nM | 222 nM | 4980 nM | 2700 nM | > 93600 nM | 1200 nM | > 39400 nM | 3760 nM | > 100000 nM | 2380 nM | > 100000 nM | 4490 nM | > 100000 nM | 2580 nM | > 100000 nM | > 55700 nM | > 100000 nM | 1640 nM | > 100000 nM |
| CC[CH2][Sn]([CH2]CC)([O]C(=O)Cc1ccc(F)cc1)[O][Sn]([CH2]CC)([CH2]CC)[O]C(=O)Cc1ccc(F)cc1 | 110 nM | 481 nM | 174 nM | 522 nM | 728 nM | 2020 nM | 26.6 nM | 1810 nM | 406 nM | 1760 nM | 393 nM | 1610 nM | 1340 nM | 2700 nM | 587 nM | 1570 nM | 443 nM | 1350 nM | 172 nM | 524 nM |
| N#Cc1nn(-c2cc(=O)[nH]c3ccc(Br)cc23)c(N)c1C#N | > 100000 nM | > 100000 nM | > 100000 nM | > 100000 nM | > 100000 nM | > 100000 nM | > 100000 nM | > 100000 nM | > 100000 nM | > 100000 nM | > 100000 nM | > 100000 nM | > 100000 nM | > 100000 nM | > 100000 nM | > 100000 nM | > 100000 nM | > 100000 nM | > 100000 nM | > 100000 nM |
| C=C1C(=O)O[C@H]2[C@H]1CC/C(COC(=O)NCc1cc(OC)cc(OC)c1)=C\CC[C@@]1(C)O[C@@H]21 | 1590 nM | 3100 nM | 1420 nM | 3180 nM | 1200 nM | 2960 nM | 1560 nM | 5940 nM | 1610 nM | 4070 nM | 1990 nM | 4110 nM | 3010 nM | 11600 nM | 7780 nM | 22300 nM | 5320 nM | 22200 nM | 663 nM | 2560 nM |
| CCOC(=O)N1C=CC(=C2C(=C3C=CN(C(=O)OCC)C=C3)C(=C3C=CN(C(=O)OCC)C=C3)C2=C2C=CN(C(=O)OCC)C=C2)C=C1 | – | 50600 nM | – | 33900 nM | – | > 100000 nM | – | 71400 nM | – | 70500 nM | – | 98800 nM | – | > 100000 nM | – | 92300 nM | – | > 100000 nM | – | 45000 nM |
